Measurements: ChEMBL document CHEMBL1145498, “A systematic interaction map of validated kinase inhibitors with Ser/Thr kinases” (Proc Natl Acad Sci U S A, 2007)
Activity calls are given as the source filed them. The calls are words filed in the database; no cut-off is given here.

What was measured:
NT2 [1] = assay: Cell cycle arrest in human NT2 cells assessed as accumulation at G1 phase; assay type: functional, cell-based
[2] = Inhibition of GSK3
NT2 [3] = assay: Cell cycle arrest in human NT2 cells assessed as accumulation at G2 phase; assay type: functional, cell-based
[4] = Inhibition of MAPK
[5] = Inhibition of diacylglycerol kinase in isolated platelet membrane; assay type: cell membranes
[6] = biological target: Eukaryotic elongation factor 2 kinase (Homo sapiens, UniProt O00418); assay: Inhibition of eEF2 kinase
[7] = biological target: Epidermal growth factor receptor (Homo sapiens, UniProt P00533)
[8] = biological target: T1, Cyclin-dependent kinase 1 (Homo sapiens, UniProt P06493); assay: Inhibition of p34cdc2
[9] = biological target: Platelet-derived growth factor receptor alpha (Homo sapiens, UniProt P16234); assay: Inhibition of PDGFRalpha
MCF7 = assay: Cytotoxicity against human MCF7 cells; assay type: functional, cell-based
[10] = biological target: Serine/threonine-protein kinase Chk2 (Homo sapiens, UniProt O96017)
[11] = Induction of differentiation in mouse D3 cells at 400 nM; assay type: functional
P19 = assay: Induction of differentiation in mouse P19 cells at 1000 nM; assay type: functional
[12] = biological target: Tyrosine-protein kinase SYK (Homo sapiens, UniProt P43405); assay: Inhibition of Syk
[13] = biological target: RAF proto-oncogene serine/threonine-protein kinase (Homo sapiens, UniProt P04049); assay: Inhibition of Raf1
[14] = biological target: Mitogen-activated protein kinase kinase kinase 8 (Homo sapiens, UniProt P41279); assay: Inhibition of Tpl2 kinase
[15] = biological target: Receptor-type tyrosine-protein kinase FLT3 (Homo sapiens, UniProt P36888); assay: Inhibition of wild type FLT3
[16] = Inhibition of MEK
[17] = biological target: Tyrosine-protein kinase ABL1 (Homo sapiens, UniProt P00519); assay: Inhibition of Abl
Angiopoietin-1 receptor = Angiopoietin-1 receptor (Homo sapiens, UniProt Q02763); assay: Inhibition of Tie2
[18] = Inhibition of serum-induced proliferation in human NHLF cells; assay type: functional, cell-based
[19] = biological target: Cyclin-dependent kinase 7/ cyclin H (Homo sapiens, UniProt P50613); assay: Inhibition of Cdk7/H/MAT1; assay type: protein-complex assay
[20] = biological target: Protein kinase C gamma type (Homo sapiens, UniProt P05129); assay: Inhibition of PKCgamma
[21] = Inhibition of Cdk2/cyclin B
[22] = Growth inhibition of human renal epithelial cells after 72 hrs […]; assay type: cell-based; settings: Epithelial cell
Aurora kinase B = Aurora kinase B (Homo sapiens, UniProt Q96GD4); assay: Inhibition of Aurora kinase B in MCF7 cells; assay type: cell-based
[23] = biological target: Fibroblast growth factor receptor 1 (Homo sapiens, UniProt P11362); assay: Inhibition of FGFR1
[24] = biological target: Platelet-derived growth factor receptor (Homo sapiens, UniProt P09619+P16234); assay: Inhibition of PDGF; assay type: protein-complex assay
[25] = biological target: Serine-protein kinase ATM (Homo sapiens, UniProt Q13315); assay: Inhibition of ATM
[26] = Bioavailability in mouse at 20 mg/kg, ip; assay type: ADME, organism-based; settings: in vivo
[27] = biological target: Serine/threonine-protein kinase ATR (Homo sapiens, UniProt Q13535); assay: Inhibition of ATR
[28] = biological target: Vascular endothelial growth factor receptor 3 (Homo sapiens, UniProt P35916); assay: Inhibition of VEGFR3
[29] = Selectivity for Cdk1/cyclinB over Cdk5/p25
[30] = biological target: T1, Cyclin-dependent kinase 1; assay: Inhibition of Cdk1
[31] = Inhibition of GTPase activity of transducer
[32] = biological target: T2, Tyrosine-protein kinase Lck (Homo sapiens, UniProt P06239); assay: Inhibition of p56lck autophosphorylation
[33] = Growth inhibition of v-ras transformed human bronchial cells; assay type: functional
[34] = Inhibition of phosphorylase kinase
[35] = biological target: Casein kinase I isoform alpha (Homo sapiens, UniProt P48729); assay: Inhibition of CK1a1
[36] = Inhibition of TNFalpha release in human peripheral blood mononuclear cells; assay type: functional
[37] = biological target: Dual specificity mitogen-activated protein kinase kinase 1 (Homo sapiens, UniProt Q02750); assay: Inhibition of MKK1
[38] = Inhibition of Plx1
[39] = biological target: Dual specificity mitogen-activated protein kinase kinase 4 (Homo sapiens, UniProt P45985); assay: Inhibition of MKK4
[40] = biological target: Dual specificity mitogen-activated protein kinase kinase 3 (Homo sapiens, UniProt P46734); assay: Inhibition of MKK3
THP-1 [41] = assay: Inhibition of LPS-stimulated IL1 production in human THP1 cells; assay type: functional, cell-based
THP-1 [42] = assay: Inhibition of LPS-stimulated TNFalpha production in human THP1 cells; assay type: functional, cell-based
HeLa = assay: Antiproliferative activity against human HeLa cells; assay type: functional, cell-based
[43] = biological target: Tyrosine-protein kinase Yes (Homo sapiens, UniProt P07947); assay: Inhibition of Yes kinase
[44] = biological target: Hepatocyte growth factor receptor (Homo sapiens, UniProt P08581); assay: Inhibition of Met kinase
[45] = biological target: Insulin-like growth factor 1 receptor (Homo sapiens, UniProt P08069); assay: Inhibition of IGF1R
[46] = biological target: T2, Tyrosine-protein kinase Lck
[47] = biological target: Inhibitor of nuclear factor kappa-B kinase subunit beta (Homo sapiens, UniProt O14920); assay: Inhibition of IKK-beta
PBMC = assay: Inhibition of LPS-stimulated TNFalpha release in human PBMC; assay type: functional, cell-based
Mus musculus = species on record: Mus musculus; assay: Inhibition of LPS-stimulated TNFalpha release in mouse; assay type: functional
Transcription factor Jun = Transcription factor Jun (Homo sapiens, UniProt P05412); assay: Inhibition of AP1 activity
[48] = Inhibition of mouse CaM kinase 2
[49] = biological target: Epidermal growth factor receptor (Homo sapiens, UniProt P00533, L861Q); assay: Inhibition of EGFR L861Q mutant; assay type: protein assay
[50] = Inhibition of v-Src mutant

T1 sequence (P06493 whole entry): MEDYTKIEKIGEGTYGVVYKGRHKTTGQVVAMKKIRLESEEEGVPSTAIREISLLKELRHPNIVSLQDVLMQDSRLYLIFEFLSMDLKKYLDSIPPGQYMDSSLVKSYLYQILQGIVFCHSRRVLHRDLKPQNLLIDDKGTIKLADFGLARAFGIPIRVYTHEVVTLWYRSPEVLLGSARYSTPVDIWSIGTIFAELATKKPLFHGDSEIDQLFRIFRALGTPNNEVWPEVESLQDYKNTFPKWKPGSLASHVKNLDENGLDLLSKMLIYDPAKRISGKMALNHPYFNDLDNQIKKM
Sequence of Epidermal growth factor receptor (Homo sapiens, UniProt P00533) (P00533 whole entry): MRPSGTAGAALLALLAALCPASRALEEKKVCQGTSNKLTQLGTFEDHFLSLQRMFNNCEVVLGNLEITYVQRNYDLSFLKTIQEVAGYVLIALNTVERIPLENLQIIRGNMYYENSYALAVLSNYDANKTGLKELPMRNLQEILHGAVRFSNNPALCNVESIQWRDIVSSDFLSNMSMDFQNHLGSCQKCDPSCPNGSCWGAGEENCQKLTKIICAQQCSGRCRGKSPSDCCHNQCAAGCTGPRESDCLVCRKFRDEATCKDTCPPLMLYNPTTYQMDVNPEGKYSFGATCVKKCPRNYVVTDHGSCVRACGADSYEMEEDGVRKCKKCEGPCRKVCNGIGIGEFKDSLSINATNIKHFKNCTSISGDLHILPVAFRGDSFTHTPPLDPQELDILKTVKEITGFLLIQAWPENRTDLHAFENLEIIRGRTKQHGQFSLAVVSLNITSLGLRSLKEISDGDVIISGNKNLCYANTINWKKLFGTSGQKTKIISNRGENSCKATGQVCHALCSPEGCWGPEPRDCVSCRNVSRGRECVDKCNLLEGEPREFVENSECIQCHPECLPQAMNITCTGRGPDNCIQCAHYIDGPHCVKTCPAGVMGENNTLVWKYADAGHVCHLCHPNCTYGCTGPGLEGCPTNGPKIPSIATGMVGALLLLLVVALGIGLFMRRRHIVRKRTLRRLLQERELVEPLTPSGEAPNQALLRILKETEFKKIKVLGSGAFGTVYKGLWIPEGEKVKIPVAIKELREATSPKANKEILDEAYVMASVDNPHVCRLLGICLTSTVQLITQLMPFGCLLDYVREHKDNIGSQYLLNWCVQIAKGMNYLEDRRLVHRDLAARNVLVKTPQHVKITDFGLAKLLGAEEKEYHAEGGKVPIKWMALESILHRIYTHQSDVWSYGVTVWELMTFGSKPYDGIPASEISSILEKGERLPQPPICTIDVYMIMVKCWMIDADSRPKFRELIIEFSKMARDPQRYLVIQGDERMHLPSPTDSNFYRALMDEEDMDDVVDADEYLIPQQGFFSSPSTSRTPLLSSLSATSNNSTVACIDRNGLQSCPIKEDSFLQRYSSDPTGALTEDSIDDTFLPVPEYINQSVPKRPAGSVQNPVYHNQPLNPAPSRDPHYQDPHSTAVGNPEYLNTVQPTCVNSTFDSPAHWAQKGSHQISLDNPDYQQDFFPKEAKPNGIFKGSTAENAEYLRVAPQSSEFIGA
Sequence of Dual specificity mitogen-activated protein kinase kinase 4 (P45985 whole entry): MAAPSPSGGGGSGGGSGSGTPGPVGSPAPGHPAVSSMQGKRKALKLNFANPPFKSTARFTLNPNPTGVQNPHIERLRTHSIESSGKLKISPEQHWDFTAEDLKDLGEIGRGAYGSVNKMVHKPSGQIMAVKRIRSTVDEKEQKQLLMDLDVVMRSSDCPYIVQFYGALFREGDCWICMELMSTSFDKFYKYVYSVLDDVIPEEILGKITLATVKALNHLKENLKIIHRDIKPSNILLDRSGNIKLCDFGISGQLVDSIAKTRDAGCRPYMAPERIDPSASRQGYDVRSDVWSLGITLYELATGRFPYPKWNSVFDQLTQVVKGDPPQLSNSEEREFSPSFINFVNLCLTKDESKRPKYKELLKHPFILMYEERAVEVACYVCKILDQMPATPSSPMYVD
T2 sequence (P06239 whole entry): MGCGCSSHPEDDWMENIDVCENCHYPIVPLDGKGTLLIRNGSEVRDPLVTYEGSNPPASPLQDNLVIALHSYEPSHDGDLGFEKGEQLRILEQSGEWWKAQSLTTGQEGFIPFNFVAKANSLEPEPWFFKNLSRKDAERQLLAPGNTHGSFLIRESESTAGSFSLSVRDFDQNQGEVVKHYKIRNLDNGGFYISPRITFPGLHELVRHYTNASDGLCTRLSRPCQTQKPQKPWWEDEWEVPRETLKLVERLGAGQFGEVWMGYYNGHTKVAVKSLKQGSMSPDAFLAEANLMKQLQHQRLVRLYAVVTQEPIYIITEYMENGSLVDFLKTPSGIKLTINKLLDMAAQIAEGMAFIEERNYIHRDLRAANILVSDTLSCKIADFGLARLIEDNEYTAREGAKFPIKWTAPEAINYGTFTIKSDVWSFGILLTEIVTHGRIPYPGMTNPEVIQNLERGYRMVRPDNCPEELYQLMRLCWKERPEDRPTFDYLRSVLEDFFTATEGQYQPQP
Sequence of Serine/threonine-protein kinase Chk2 (O96017 whole entry): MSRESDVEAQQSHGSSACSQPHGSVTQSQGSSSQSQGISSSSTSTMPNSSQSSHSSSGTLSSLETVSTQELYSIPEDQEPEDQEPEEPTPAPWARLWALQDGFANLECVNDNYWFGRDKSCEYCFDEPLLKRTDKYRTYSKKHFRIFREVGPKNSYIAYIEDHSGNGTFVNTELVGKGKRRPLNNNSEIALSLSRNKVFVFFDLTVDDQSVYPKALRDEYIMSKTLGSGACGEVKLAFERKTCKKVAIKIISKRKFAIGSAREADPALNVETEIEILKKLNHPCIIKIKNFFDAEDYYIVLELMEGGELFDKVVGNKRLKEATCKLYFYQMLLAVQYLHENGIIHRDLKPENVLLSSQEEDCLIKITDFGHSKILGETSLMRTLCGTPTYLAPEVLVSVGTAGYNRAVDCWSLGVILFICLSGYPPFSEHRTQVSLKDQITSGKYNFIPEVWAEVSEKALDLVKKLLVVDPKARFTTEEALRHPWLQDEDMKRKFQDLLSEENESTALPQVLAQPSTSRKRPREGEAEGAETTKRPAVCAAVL
Sequence of Mitogen-activated protein kinase kinase kinase 8 (P41279 whole entry): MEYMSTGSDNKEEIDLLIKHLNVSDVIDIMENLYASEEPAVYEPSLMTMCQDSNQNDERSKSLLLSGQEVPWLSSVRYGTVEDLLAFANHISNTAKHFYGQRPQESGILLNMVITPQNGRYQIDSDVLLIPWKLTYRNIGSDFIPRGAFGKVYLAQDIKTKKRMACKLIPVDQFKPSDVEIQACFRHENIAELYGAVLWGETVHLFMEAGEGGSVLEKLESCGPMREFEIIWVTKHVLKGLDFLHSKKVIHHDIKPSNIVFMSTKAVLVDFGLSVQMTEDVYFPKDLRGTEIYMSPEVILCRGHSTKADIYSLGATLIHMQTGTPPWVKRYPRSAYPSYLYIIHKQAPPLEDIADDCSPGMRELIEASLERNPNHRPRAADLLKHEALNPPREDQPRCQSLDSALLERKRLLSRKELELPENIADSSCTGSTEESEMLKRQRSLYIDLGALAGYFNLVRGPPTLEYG
Sequence of Transcription factor Jun (P05412 whole entry): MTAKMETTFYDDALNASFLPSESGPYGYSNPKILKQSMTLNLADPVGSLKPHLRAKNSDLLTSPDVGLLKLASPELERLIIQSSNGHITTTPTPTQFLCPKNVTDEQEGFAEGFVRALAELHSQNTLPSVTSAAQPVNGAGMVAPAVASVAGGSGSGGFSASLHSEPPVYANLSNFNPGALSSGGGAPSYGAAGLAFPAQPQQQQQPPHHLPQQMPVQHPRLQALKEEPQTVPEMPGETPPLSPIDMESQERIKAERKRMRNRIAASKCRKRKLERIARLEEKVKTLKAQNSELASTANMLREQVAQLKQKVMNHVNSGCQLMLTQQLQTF
Sequence of Receptor-type tyrosine-protein kinase FLT3 (P36888 whole entry): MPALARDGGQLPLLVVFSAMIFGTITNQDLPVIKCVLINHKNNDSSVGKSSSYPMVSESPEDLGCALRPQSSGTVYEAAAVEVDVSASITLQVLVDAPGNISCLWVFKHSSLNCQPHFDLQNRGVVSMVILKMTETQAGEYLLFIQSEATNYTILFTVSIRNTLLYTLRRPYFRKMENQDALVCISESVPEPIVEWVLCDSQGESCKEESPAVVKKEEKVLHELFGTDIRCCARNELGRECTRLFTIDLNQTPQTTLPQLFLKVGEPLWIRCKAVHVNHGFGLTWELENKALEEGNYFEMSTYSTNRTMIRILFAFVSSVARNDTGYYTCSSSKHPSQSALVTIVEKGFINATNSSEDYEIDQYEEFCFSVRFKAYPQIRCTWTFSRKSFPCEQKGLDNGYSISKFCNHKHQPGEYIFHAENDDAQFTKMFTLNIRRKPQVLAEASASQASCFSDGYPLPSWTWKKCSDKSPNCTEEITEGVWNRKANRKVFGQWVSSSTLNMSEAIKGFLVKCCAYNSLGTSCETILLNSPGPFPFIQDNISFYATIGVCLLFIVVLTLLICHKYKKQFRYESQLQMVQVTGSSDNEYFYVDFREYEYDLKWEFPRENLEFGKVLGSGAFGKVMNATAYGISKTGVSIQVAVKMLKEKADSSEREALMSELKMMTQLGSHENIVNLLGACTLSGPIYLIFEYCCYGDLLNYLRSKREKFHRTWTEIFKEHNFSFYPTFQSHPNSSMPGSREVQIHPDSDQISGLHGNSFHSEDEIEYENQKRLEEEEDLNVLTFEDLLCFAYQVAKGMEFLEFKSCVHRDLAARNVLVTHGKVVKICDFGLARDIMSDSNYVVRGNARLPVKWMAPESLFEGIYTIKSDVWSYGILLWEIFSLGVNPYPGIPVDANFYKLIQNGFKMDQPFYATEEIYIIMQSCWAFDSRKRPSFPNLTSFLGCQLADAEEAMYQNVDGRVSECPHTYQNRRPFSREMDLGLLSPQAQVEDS

CCCCc1c(-c2ccc(O)cc2)[nH]c2nccnc12 [ALOISINE A]
IC50 (NT2 [1]): 7 µM
IC50 [2]: 0.5 µM
IC50 (NT2 [3]): 10.5 µM

COc1ccc(CNc2nc(N(CCO)CCO)nc3c2ncn3C(C)C)cc1
IC50 [4]: > 1250 µM

O=c1c2ccccc2[nH]c(=S)n1CCN1CCC(=C(c2ccc(F)cc2)c2ccc(F)cc2)CC1 [DIACYLGLYCEROL KINASE INHIBITOR II]
IC50 [5]: 0.3 µM

Cc1cc(C=C2C(=O)C=CC2=O)cc(C)c1O
IC50 [6]: 0.44 µM
IC50 [7]: 440 µM

O=C1NC(=O)c2c1c1c3ccccc3n3c1c1c2c2ccccc2n1C1CCC3O1
IC50 [8]: 0.25 µM

CCCNC(=O)Nc1ccc(Oc2ncnc3cc(OC)c(OC)cc23)cc1Cl [KRN-633]
IC50 [9]: 0.97 µM

NC1=N/C(=C2/CCNC(=O)c3[nH]ccc32)C(=O)N1 [DEBROMOHYMENIALDISINE]
IC50 (MCF7): 25 µM
IC50 [10]: 3.5 µM

Nc1cccc(-c2cc3c(Oc4cccc(O)c4)ncnc3[nH]2)c1
Activity [11]: 50%
Activity (P19): 30%

O=C1Nc2ccccc2/C1=C\c1ccc[nH]1
IC50 [12]: 0.014 µM

O=C1C(Cl)=C(N2C(=O)CCC2=O)C(=O)c2ccccc21
IC50 [13]: 34.5 µM
IC50 [14]: 0.05 µM

c1ccc(-c2n[nH]c3c2oc2ccccc23)cc1
IC50 [15]: 0.3 µM
IC50 [16]: ≥ 10 µM
IC50 [17]: ≥ 10 µM

CN1CCc2[nH]c(=S)c(C#N)c(-c3cccs3)c2C1
IC50 (Angiopoietin-1 receptor): > 10 µM
IC50 [18]: < 8 µM

CC(C)c1nn(-c2c(Cl)cccc2Cl)c2nc(Cc3ccc(OCCO)cc3)[nH]c(=O)c12
IC50 [19]: 0.071 µM

O=C1NC(=O)C(c2cn(CCCn3ccnc3)c3ccccc23)=C1Nc1ccccc1
IC50 [20]: > 1 µM

CC(=O)O/N=C1/C(=C2/C(=O)Nc3cc(Br)ccc32)Nc2ccccc21 [6-BROMOINDIRUBIN-3'-ACETOXIME]
IC50 [21]: 63 µM

CC[C@H](CO)Nc1nc(NCc2ccccc2)c2ncn(C(C)C)c2n1 [SELICICLIB]
IC50 [22]: 25 µM

COc1cc2ncnc(Nc3ccc(NC(=O)c4ccccc4)cc3)c2cc1OC [ANILINOQUINAZOLINE1]
IC50 (Aurora kinase B): 1.25 µM

CCOC(=O)c1c(C)[nH]c(/C=C2\C(=O)Nc3ccccc32)c1C
IC50 [23]: 5 µM
IC50 [24]: > 100 µM

CN(c1cccnc1)c1cc2c(Nc3ccc(F)c(Cl)c3)c(C#N)cnc2cn1
IC50 [14]: 0.05 µM

O=c1cc(N2CCOCC2)oc2c1ccc1ccccc12
IC50 [25]: > 100 µM
bioavailability [26]: 20%
IC50 [27]: > 100 µM

Cn1cnc2c(NCc3ccccc3)nc(NCCO)nc21 [OLOMOUCINE]
IC50 [4]: 25 µM

N#CCCc1ccc2c(c1)-c1[nH]c3ccc([N+](=O)[O-])cc3c1CC(=O)N2 [ALSTERPAULLONE 2]
IC50 [28]: 1 µM
IC50 [29]: 0.03 µM

O=C1Nc2ccc(S(=O)(=O)O)cc2/C1=C1/Nc2ccccc2/C1=N\O
IC50 [30]: 0.005 µM

N#CC(C#N)=Cc1ccc(O)c(O)c1 [TYRPHOSTIN 23]
IC50 [31]: 10 µM

Cc1c2ccncc2c(C)c2c1[nH]c1ccccc12 [ELLIPTECINE]
IC50 [32]: 18.5 µM
IC50 [33]: 15 µM

Cl.Cn1cc(C2=C(c3ccc4cc5n(c4c3)CCC(CN)C5)C(=O)NC2=O)c2ccccc21 (configuration not stated)
IC50 [34]: 1.3 µM

COc1cc(OC)c(/C=C2\C(=O)Nc3ccccc32)c(OC)c1
IC50 [8]: > 100 µM
IC50 [35]: 11 µM

C[S+]([O-])c1ccc(CSc2nc(-c3ccc(F)cc3)c(-c3ccncc3)[nH]2)cc1 (configuration not stated)
IC50 [36]: 3.65 µM

COc1cc(C[C@H]2C(=O)OC[C@@H]2Cc2ccc(OC)c(OC)c2)ccc1O [ARCTIGENIN]
IC50 [37]: 0.001 µM

C/C(O)=C(\C#N)C(=O)Nc1cc(Br)ccc1Br
IC50 [38]: 10 µM

CCOC(=O)c1cnc2oc3ccc(O)cc3c2c1-c1ccccc1
Activity: Active

C=CNC#N
IC50 [16]: 0.012 µM
IC50 [39]: > 1 µM
IC50 [40]: > 1 µM

COc1nccc(-c2c(-c3ccc(F)cc3)ncn2[C@H]2CC[C@H](O)CC2)n1
IC50 (THP-1 [41]): 0.12 µM
IC50 (THP-1 [42]): 0.12 µM

CCOc1ccc(/C=C2/SC(=O)N(CCN)C2=O)cc1 [HIAZOLIDINEDIONE1]
IC50 (HeLa): ≤ 25 µM

CN(C)S(=O)(=O)c1ccc2c(c1)/C(=C/c1cc3c([nH]1)CCCC3)C(=O)N2
IC50 [43]: 0.02 µM

Cc1[nH]c(/C=C2\C(=O)Nc3ccc(S(=O)(=O)N(C)c4cccc(Cl)c4)cc32)c(C)c1C(=O)N1CCN(C)CC1
IC50 [44]: 0.02 µM

O=C(Nc1cccc(Nc2nccc(Nc3cccc(C(F)(F)F)c3)n2)c1)C1CC1 [ANILINOPYRIMIDINE1]
IC50 [45]: 0.591 µM
IC50 [12]: 0.887 µM
IC50 [46]: 0.131 µM

Cc1cc(Nc2nc(-c3ccccc3)nc3ccccc23)n[nH]1
Ki [2]: 0.024 µM

O=C1NC(=O)c2c1c1c3ccccc3[nH]c1n1cncc21 [ISOGRANULATIMIDE]
IC50 [10]: 3 µM

COc1cc(O)c2c(c1)oc(=O)c1c3cc(O)c(O)cc3oc21 [WEDELOLACTONE]
IC50 [47]: > 10 µM

CSc1nc(-c2ccc(F)cc2)c(-c2ccnc(NC(C)c3ccccc3)c2)[nH]1 (racemic)
IC50 (PBMC): 0.16 µM
ED50 (Mus musculus): 1.33 mg/kg

Cc1nc2sccn2c(=O)c1CCN1CCC(=C(c2ccccc2)c2ccc(F)cc2)CC1
IC50 [5]: 2.8 µM

N#C/C(=C(/N)Sc1ccc(N)cc1)c1ccccc1C(F)(F)F
IC50 (Transcription factor Jun): 2.03 µM
IC50 [39]: > 10 µM

COc1ccc(S(=O)(=O)N(CCO)c2ccccc2CN(C)C/C=C/c2ccc(Cl)cc2)cc1
IC50 [48]: 0.37 µM

CCN(CC)CCNC(=O)c1c(C)[nH]c(/C=C2\C(=O)Nc3ccc(Cl)cc32)c1C [SU-11652]
IC50 [7]: > 20 µM

O=C(Nc1cccc(Nc2cc(Nc3cccc(C(F)(F)F)c3)ncn2)c1)C1CC1
IC50 [49]: 0.004 µM

C[S+]([O-])c1ccc(-c2nc(-c3ccc(F)cc3)c(-c3ccncc3)[nH]2)cc1 (configuration not stated) [SB-203580]
IC50 (THP-1 [41]): 0.05 µM
IC50 (THP-1 [42]): 0.05 µM

COc1cc2c(cc1OC)-c1n[nH]c(Nc3cccc(F)c3)c1C2
IC50 [30]: > 10 µM

CC(C)(C)n1nc(-c2cccc3ccccc23)c2c(N)ncnc21
IC50 [50]: 0.0015 µM
